System: 485368-065-R4-J2-PDC spheroids with HUVEC/MSC, viability
Experiment: Anticancer human tumor 485368-065-R4-J2-PDC patient-derived pancreatic carcinoma cell line growth inhibition [CLK]
Settings: for IC50: curve of first compound; for viability, T/C: stronger effect = lower value
Excerpt: A high-throughput screen of multi-cell type tumor spheroids was designed to identify active combinations of […] and targeted small molecules. Complex spheroids include a stromal component modeled by human endothelial cells (HUVEC) and fibroblasts modeled by human mesenchymal stem cells (MSCs). The concentration ranges selected for each drug and investigational agent were based upon clinically achievable concentrations if the clinical Cmax of the agent was known.
Compounds. The drugs and investigational agents: cirtuvivint (SM08502; NSC835563), CC-671 (NSC850746), vemurafenib (NSC761431), tapotoclax (NSC804041), sotorasib (NSC818433), adagrasib (NSC831453), MRTX-1133 (NSC836407), BAY2416964 (NSC825713), copanlisib (NSC816437), inavolisib (NSC800729), abemaciclib (NSC768073), osimertinib (NSC779217), entinostat (NSC756642), eltanexor (KPT-8602, NSC794443), venetoclax (NSC766270), ceralasertib (NSC777638), bortezomib (NSC756655), olaparib (NSC753686), talazoparib (NSC767125), alisertib (NSC759677), peposertib (NSC802822), gemcitabine (NSC613327), 5-fluorouracil (NSC19893), SN-38 (NSC673596), oxaliplatin (NSC266046), paclitaxel (NSC125973), and doxorubicin (NSC123127), were obtained from the National Cancer Institute (NCI) Developmental Therapeutics Program Chemical Repository. The FDA-approved anticancer drug set is available from the Developmental Therapeutics Program at https://dtp.cancer.gov/organization/dscb/obtaining/available plates.htm. […] The stock solutions were prepared in dimethyl sulfoxide (DMSO, Sigma-Aldrich, St. Louis, MO, cat. D2650), except for the platinum complexes which were prepared in saline (Quality Biological, Gaithersburg, MD, cat. 114-055-101), at 800-fold the tested concentration and stored at -70 degrees C prior to their use. All drugs and investigational agents were tested over a range starting from a high concentration at or near the clinical Cmax and decreasing in half-log increments. If the clinical Cmax for an agent had not been determined, the highest concentration tested was 10 microM.
Cell Culture. All cells were maintained in an incubator at 37 degrees C and 5% CO2 with 95% humidity. The PDC lines were cultured according to standard operating procedures established by the NCI PDMR. Briefly, all PDCs were thawed and cultured in Matrigel-coated flasks prepared with a working solution of 1X Ham's F-12 nutrient mix, without supplementation (Invitrogen, Waltham, MA, cat. 11765054), 100 U/mL penicillin-streptomycin (Invitrogen, cat. 15140122), and 2.5% Matrigel (Corning Inc., Corning, NY, cat. 354248) for the first three passages. The 947758-054-R-J2-PDC line was cultured in 6B/Colon 1A media, which includes advanced DMEM/F-12 (Thermo Fisher Scientific, cat. 12634028), 10 mM HEPES (Thermo Fisher Scientific, cat. 15630080), 1X GlutaMAX supplement (Thermo Fisher Scientific, cat. 35050061), 0.1 mg/mL primocin (InvivoGen, cat. ant-pm-2), 10% defined fetal bovine serum, heat inactivated (HyClone Laboratories Inc., cat. SH30070.03HI), 1.25 mM N-Acetyl-L-cysteine (Sigma-Aldrich, cat. A9165), 10 mM nicotinamide (Sigma-Aldrich, cat. N0636), 1X B-27 supplement (Thermo Fisher Scientific, cat. 17504044), 1X N-2 supplement (Thermo Fisher Scientific, cat. 17502048), and 10 microM Y-27632 dihydrochloride (Tocris Bioscience, cat. 1254). The 876862-298-R-J1-PDC was cultured in 6E media, which includes all 6B/Colon 1A media components plus 50% L-WRN conditioned media (ATCC, cat. CRL-3276), 50 ng/mL recombinant human EGF recombinant protein (hEGF; Thermo Fisher Scientific, cat. PHG0311), 10 ng/mL recombinant human fibroblast growth factor 10 (hGFG-10; PeproTech, cat. 100-26), 1 ng/mL recombinant human fibroblast growth factor 2 (hFGF-2; PeproTech, cat. 100-18B), and 1 µM prostaglandin E2 (PGE2; Tocris, cat. 2296). The 227483-062-R1-J1-PDC line was cultured in Panc media, containing all 6E components except hFGF-2, with the addition of 500 nM SB-431542 (Selleckchem, cat. S1067) and 10 nM gastrin (Tocris, cat. 3006). […]

[1] = second compound 0.0316 µM, first compound 0.0316 µM
[2] = second compound 0.0316 µM, first compound 0.1 µM
[3] = second compound 0.0316 µM, first compound 0.316 µM
[4] = second compound 0.0316 µM, first compound 1 µM
[5] = second compound 0.0316 µM, first compound 3.16 µM
[6] = second compound 0.0316 µM, first compound 10 µM
[7] = second compound 0.1 µM, first compound 0.0316 µM
[8] = second compound 0.1 µM, first compound 0.1 µM
[9] = second compound 0.1 µM, first compound 0.316 µM
[10] = second compound 0.1 µM, first compound 1 µM
[11] = second compound 0.1 µM, first compound 3.16 µM
[12] = second compound 0.1 µM, first compound 10 µM
[13] = second compound 0.316 µM, first compound 0.0316 µM
[14] = second compound 0.316 µM, first compound 0.1 µM
[15] = second compound 0.316 µM, first compound 0.316 µM
[16] = second compound 0.316 µM, first compound 1 µM
[17] = second compound 0.316 µM, first compound 3.16 µM
[18] = second compound 0.316 µM, first compound 10 µM
[19] = second compound 1 µM, first compound 0.0316 µM
[20] = second compound 1 µM, first compound 0.1 µM
[21] = second compound 1 µM, first compound 0.316 µM
[22] = second compound 1 µM, first compound 1 µM
[23] = second compound 1 µM, first compound 3.16 µM
[24] = second compound 1 µM, first compound 10 µM
[25] = second compound 3.16 µM, first compound 0.0316 µM
[26] = second compound 3.16 µM, first compound 0.1 µM
[27] = second compound 3.16 µM, first compound 0.316 µM
[28] = second compound 3.16 µM, first compound 1 µM
[29] = second compound 3.16 µM, first compound 3.16 µM
[30] = second compound 3.16 µM, first compound 10 µM
[31] = second compound 10 µM, first compound 0.0316 µM
[32] = second compound 10 µM, first compound 0.1 µM
[33] = second compound 10 µM, first compound 0.316 µM
[34] = second compound 10 µM, first compound 1 µM
[35] = second compound 10 µM, first compound 3.16 µM
[36] = second compound 10 µM, first compound 10 µM
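Further: spheroids exposed to compounds for seven days.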
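Wherever viability, T/C is given: 100% = DMSO vehicle control wells.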

CCCS(=O)(=O)Nc1ccc(F)c(C(=O)c2c[nH]c3ncc(-c4ccc(Cl)cc4)cc23)c1F + CN1CCN(c2cc(C(=O)Nc3cc4cc(-c5cnn(C)c5)ccc4cn3)ccn2)CC1
IC50 (second compound 0.0316 µM): > 10 µM | IC50 (second compound 0.1 µM): > 10 µM | IC50 (second compound 0.316 µM): > 10 µM | IC50 (second compound 1 µM): < 0.0316 µM | IC50 (second compound 3.16 µM): < 0.0316 µM | IC50 (second compound 10 µM): < 0.0316 µM | viability, T/C [1]: 112% | viability, T/C [2]: 98.8% | viability, T/C [3]: 98.3% | viability, T/C [4]: 111% | viability, T/C [5]: 93.8% | viability, T/C [6]: 111% | viability, T/C [7]: 105% | viability, T/C [8]: 112% | viability, T/C [9]: 103% | viability, T/C [10]: 103% | viability, T/C [11]: 96.5% | viability, T/C [12]: 94.5% | viability, T/C [13]: 84.1% | viability, T/C [14]: 99.5% | viability, T/C [15]: 102% | viability, T/C [16]: 96.2% | viability, T/C [17]: 97.9% | viability, T/C [18]: 64.2% | viability, T/C [19]: 0.91% | viability, T/C [20]: 2.34% | viability, T/C [21]: 4.24% | viability, T/C [22]: 1.9% | viability, T/C [23]: 5.13% | viability, T/C [24]: 3.9% | viability, T/C [25]: 2.27% | viability, T/C [26]: 3.77% | viability, T/C [27]: 2.71% | viability, T/C [28]: 3.9% | viability, T/C [29]: 3.24% | viability, T/C [30]: 5.64% | viability, T/C [31]: 1.34% | viability, T/C [32]: 4.22% | viability, T/C [33]: 2.17% | viability, T/C [34]: 3.01% | viability, T/C [35]: 4.86% | viability, T/C [36]: 6.03%

COC1C=CCC(C)C(C)S(=O)(=O)NC(=O)c2ccc3c(c2)N(CC2CCC21)CC1(CCCc2cc(Cl)ccc21)CO3 (centres undefined) + CN1CCN(c2cc(C(=O)Nc3cc4cc(-c5cnn(C)c5)ccc4cn3)ccn2)CC1
IC50 (second compound 0.0316 µM): > 10 µM | IC50 (second compound 0.1 µM): > 10 µM | IC50 (second compound 0.316 µM): > 10 µM | IC50 (second compound 1 µM): < 0.0316 µM | IC50 (second compound 3.16 µM): < 0.0316 µM | IC50 (second compound 10 µM): < 0.0316 µM | viability, T/C [1]: 105% | viability, T/C [2]: 106% | viability, T/C [3]: 106% | viability, T/C [4]: 113% | viability, T/C [5]: 104% | viability, T/C [6]: 91.6% | viability, T/C [7]: 117% | viability, T/C [8]: 124% | viability, T/C [9]: 107% | viability, T/C [10]: 114% | viability, T/C [11]: 108% | viability, T/C [12]: 90.8% | viability, T/C [13]: 84% | viability, T/C [14]: 86% | viability, T/C [15]: 87.2% | viability, T/C [16]: 78.6% | viability, T/C [17]: 81.8% | viability, T/C [18]: 63.5% | viability, T/C [19]: 1.08% | viability, T/C [20]: 2.18% | viability, T/C [21]: 2.96% | viability, T/C [22]: 2.24% | viability, T/C [23]: 1.88% | viability, T/C [24]: 6.49% | viability, T/C [25]: 1.15% | viability, T/C [26]: 3.34% | viability, T/C [27]: 1.27% | viability, T/C [28]: 2.24% | viability, T/C [29]: 2.02% | viability, T/C [30]: 4.8% | viability, T/C [31]: 2.15% | viability, T/C [32]: 4.22% | viability, T/C [33]: 1.64% | viability, T/C [34]: 3.68% | viability, T/C [35]: 2.18% | viability, T/C [36]: 2.71%

From PubChem BioAssay AID2060617 (Molecular Pharmacology Branch, DTP, NCI, 2025)
